Patent publication US9181187B2, “Therapeutic agent for urinary excretion disorder” (ONO PHARMACEUTICAL CO., LTD., priority 2007, dated 2015)

Tests used:
[1] = tested on: male cynomolgus monkeys; test: Animal model of dysuria induced by intravesical infusion of ATP (singlecystometry); format: in vivo, cynomolgus monkey; settings: ATP solution intravesical, compound A 0.1 mg/kg subcutaneous
Description: After administration of ketamine hydrochloride anesthesia (15 to 20 mg/kg), male cynomolgus monkeys (11 years, 3 male (symbol “∘” in the FIG. 1 and FIG. 2 represents individual one.)) were fixed onto a stereotaxic operating table. The top of the bladder catheter was connected to a pressure transducer via a three-way stopcock, and intravesical pressure was recorded using a distortion amplifier and a recorder. The other end of the three-way stopcock were connected to a syringe for intravesical infusion to which an infusion pump was connected and a extension tube which satisfied physiological saline to remove residual urine from bladder.
The physiological saline was infused into the bladder at an infusion rate of 1.5 to 7.0 mL/min, and immediately after completion of voiding, the intravesical infusion was terminated and residual urine was removed (hereinafter, the above procedures is assumed singlecystometry.) and the procedures were repeated. […] Urinary flow rate (voided volume per voiding time (mL/sec)) and residual urine rate (residual urine volume per voided volume (%)) were calculated for each of the singlecystometry before ATP perfusion, after ATP perfusion and after ATP perfusion conducted after administration of the compound A. The results are shown in FIG. 1 and FIG. 2.

[2] = biological target: mouse EP1 receptor (Mus musculus (Mouse), UniProt P35375); test: Measurement of EP1 Antagonist Activity (inhibition of PGE2-induced increase in intracellular calcium); format: cell-based; settings: cells expressing mouse EP1 receptor; increase in intracellular calcium induced by PGE2 (100 nM)
Chain of mouse EP1 receptor (P35375 whole entry): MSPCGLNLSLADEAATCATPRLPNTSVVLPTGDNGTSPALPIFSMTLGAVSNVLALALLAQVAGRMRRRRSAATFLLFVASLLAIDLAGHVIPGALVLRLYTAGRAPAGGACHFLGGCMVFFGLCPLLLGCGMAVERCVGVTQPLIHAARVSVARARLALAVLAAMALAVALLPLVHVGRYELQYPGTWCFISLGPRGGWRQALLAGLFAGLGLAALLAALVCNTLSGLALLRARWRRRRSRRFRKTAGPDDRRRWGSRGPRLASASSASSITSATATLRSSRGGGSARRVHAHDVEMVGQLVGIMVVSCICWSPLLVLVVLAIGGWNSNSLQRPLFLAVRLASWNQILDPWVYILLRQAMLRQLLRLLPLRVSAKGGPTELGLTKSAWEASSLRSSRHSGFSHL
Description: The cells expressing mouse EP1 receptor were seeded at 10^4 cells/well in 96-well plates and cultured for 2 days with 10% Fetal Bovine Serum (FBS)/alpha Modified Eagle Medium (αMEM) in the incubator (37° C., 5% CO2). The cells were washed with phosphate buffer, and load buffer (10% FBS/αMEM containing Fura2/AM (5 μM), indomethacin (20 μM) and probenecid (2.5 mM)) was then added to each well and cells were left standing for 1 hour. Load buffer of each well was discarded and assay buffer (Hank's Balanced Salt Solution (HBSS) containing indomethacin (2.5 mM), probenecid (2.5 mM), HEPES-NaOH (10 mM) and 0.1% (w/v) Bovine Serum Albumin (BSA)) was added to each well and plates were left at room temperature in a dark room for 1 hour. Afterwards, compounds of the present invention (10 μL) or PGE2 (10 μL) prepared with assay buffer was added to each well and intracellular calcium concentrations were measured using a Fluorescence Drug Screening System (FDSS-4000, Hamamatsu Photonics K.K.). Changes in ratio of fluorescent intensity at 500 nm in cells exposed to alternating 2 excitation wavelengths was monitored as changes in intracellular calcium concentrations.
IC50 values were calculated based on the response inhibition rate of increase in intracellular calcium concentrations induced by PGE2 (100 nM) and was used as an index of EP1 antagonistic activity.

With `Cc1cc(C(=O)O)ccc1COc1cc2c(cc1N(CC(C)C)S(=O)(=O)c1nccs1)CCC2` [Compound A, 3-methyl-4-[6-[N-isobutyl-N-(2-thiazolylsulfonyl)amino]indan-5-yloxymethyl]benzoic acid] as the molecule, how does the “Urinary flow rate (voided volume per voiding time)” value ([1]; FIG. 1) read?
The value was “recovered the urinary flow rate decreased by ATP”.

And the “Residual urine rate (residual urine volume per voided volume)” value ([1]; FIG. 2)?
Its value is “decreased the residual urine rate”.

What about the IC50 [2] of the same molecule?
The IC50 was 6.9 nM.

For `Cc1ccc(S(=O)(=O)N(CC(C)C)c2cc3c(cc2OCc2ccc(C=CC(=O)O)cc2)CCC3)o1` [Compound E, 4-[6-[N-isobutyl-N-(5-methyl-2-furylsulfonyl)amino]indan-5-yloxymethyl]cinnamic acid], which IC50 [2] is on record?
Its IC50 is 21 nM.

`Cc1csc(S(=O)(=O)N(CC(C)C)c2ccc(C(F)(F)F)cc2OCc2ccc(C=CC(=O)O)cc2)n1` [Compound G, 4-[2-[N-isobutyl-N-(4-methyl-2-thiazolylsulfonyl)amino]-5-trifluoromethylphenoxymethyl]cinnamic acid] was tested. Which IC50 [2] did it give?
The IC50 was 25 nM.

How did the IC50 [2] turn out when `Cc1cc(OCc2ccc(C=CC(=O)O)cc2C)c(N(CC(C)C)S(=O)(=O)c2cccnc2)cc1C` [Compound I, 3-methyl-4-[2-[N-isobutyl-N-(3-pyridylsulfonyl)amino]-4,5-dimethylphenoxymethyl]cinnamic acid] was run?
Its IC50 is 9.2 nM.

With `Cc1csc(S(=O)(=O)N(c2cc(C)c(Cl)cc2OCc2ccc(-c3nnn[nH]3)cc2)C(C)C)n1` [Compound J, N-[4-chloro-5-methyl-2-[4-(5-tetrazolyl)phenylmethyloxy]phenyl]-N-isopropyl-(4-methyl-2-thiazolyl)sulfonylamide] as the molecule, how does the IC50 [2] read?
The IC50 was 4.9 nM.

`Cc1cc(OCc2ccc(-c3nnn[nH]3)cc2Cl)c(N(C(C)C)S(=O)(=O)c2cccnc2)cc1C` [Compound K, N-[4,5-dimethyl-2-[2-chloro-4-(5-tetrazolyl)phenylmethyloxy]phenyl]-N-isopropyl-3-pyridylsulfonylamide] was tested. Which IC50 [2] did it give?
Its IC50 is 3.7 nM.

With `Cc1csc(S(=O)(=O)N(c2cc(C)c(C)cc2OCc2ccc(-c3noc(=O)[nH]3)cc2)C(C)C)n1` [Compound L, N-[4,5-dimethyl-2-[4-(5-oxo-1,2,4-oxadiazol-3-yl)phenylmethyloxy]phenyl]-N-isopropyl-(4-methyl-2-thiazolyl)sulfonylamide] as the molecule, how does the IC50 [2] read?
The IC50 was 7.1 nM.
